From USRE37781E1, “Substituted cyclic carbonyls and derivatives thereof useful as retroviral protease inhibitors” (DuPont Pharmaceuticals Company, priority 1991, dated 2002)
Values after ≈ are worked out from the molar mass of the structure shown. Where two headings read alike, the source gives them in different places. One block for each molecule: values may come before it.

Experiments:
[1] = target: single-chain tethered dimer of HIV protease (Human immunodeficiency virus 1, UniProt P04585); assay: biochemical; format: biochemical; design: fused on or other part: A second copy of the same protease unit is joined to the first by a short peptide tether, giving one polypeptide; settings: Table 2e; read-out: K4 HPLC
Experimental: HIV Protease Inhibition Assay—HPLC Method
Active protease was prepared as described therein by extraction with 67% acetic acid, dilution 33-fold with water, dialysis against water and then against a “refolding buffer” consisting of 20 mM MES, 1 mM dithiothreitol and 10% glycerol. Protease was stored as a stock preparation at 10 uM in refolding buffer.
Substrate: Peptide of sequence: aminobenzoyl-Ala-Thr-His-Gln-Val-Tyr-Phe(NO2)-Val-Arg-Lys-Ala containing p-nitrophenylalanine, was prepared by solid phase synthesis as previously described Cheng et al., op.cit. Stock solutions of 2 mM substrate were prepared in DMSO.
Inhibitory compounds were dissolved in sufficient DMSO to make 3 mM stock solutions. All further dilutions were prepared in “assay buffer”: 1M NaCl, 50 mM MES, pH 5.5, 1 mM EDTA, 1 mM DTT, […] glycerol.
Enzyme reaction: In a 2 ml screw-cap centrifuge tube were added 50 ul protease (final concentration 0.25 nM) and 0.1 ml inhibitory compound (final concentration […]). After 15 min preincubation at room temperature, the reaction was started with the addition of 0.05 ml substrate (final concentration 5 uM). Incubation was carried out at 30 C. for 1 hr. The reaction was stopped with 1 ml 0.1M ammonium hydroxide.
HPLC measurement of product formation: The product (aminobenzoyl-Ala-Thr-His-Gln-Val-Tyr) was separated from substrate on a Pharmacia MonoQ anion exchange column. The injection volume was 0.2 ml. The mobile phases were: A (20 mM trisHCl, pH 9.0, 0.02% sodium Azide, 10% acetonitrile), B (20 mM tris HCl, pH 9.0, 0.02% sodium azide, 0.5M ammonium formate, 10% acetonitrile). The mobile phases were pumped at 1 ml/min, with a gradient from 0 to 30% B in 5 min, 100% B for 4 min to wash the column, and a re-equilibration for 4 min. The retention time of the product was 3.6 min. Detection with a Shimadzu model RF535 fluorescence monitor was at 330 nm (excitation) and 430 (emission).

HIV-1 (RF) in MT-2 cells = assay: microbe, parasite or virus in culture; format: cell-based
Experimental: DNA Plasmids and in vitro RNA transcripts:
Plasmid pDAB 72 containing both gag and pol sequences of BH10 (bp 113-1816) cloned into PTZ 19R was prepared according to Erickson-Viitanen et al. AIDS Research and Human Retroviruses 1989, 5, 577. The plasmid was linearized with Bam HI prior to the generation of in vitro RNA transcripts using the Riboprobe Gemini system II kit (Promega) with T7 RNA polymerase. Synthesized RNA was purified by treatment with RNase free DNAse (Promega), phenol-chloroform extraction, and ethanol precipitation. RNA transcripts were dissolved in water, and stored at −70° C. The concentration of RNA was determined from the A260.
Biotinylated capture probes were purified by HPLC after synthesis on an Applied Biosystems (Foster City, Calif.) DNA synthesizer by addition of biotin to the 5′ terminal end of the oligonucleotide, using the biotin-phosphoramidite reagent of Cocuzza, Tet. Lett. 1989, 30, 6287. The gag biotinylated capture probe (5-biotin-[…] 3′) was complementary to nucleotides 889-912 of HXB2 and the pol biotinylated capture probe (5′-biotin-[…] 3′) was complementary to nucleotides 2374-2395 of HXB2. Alkaline phosphatase conjugated oligonucleotides used as reporter probes were prepared by Syngene (San Diego, Calif.). The pol reporter probe (5′ […] 3′) was complementary to nucleotides 2403-2425 of HXB2. The gag reporter probe (5′ […] 3′) was complementary to nucleotides 950-973 of HXB2. All nucleotide positions are those of the GenBank Genetic Sequence Data Bank as accessed through the Genetics Computer Group Sequence Analysis Software Package (Devereau Nucleic Acids Research 1984, 12, 387). The reporter probes were prepared as 0.5μM stocks in 2× SSC (0.3M NaCl, 0.03M sodium citrate), 0.05M Tris pH 8.8, 1 mg/mL BSA. The biotinylated capture probes were prepared as 10 μM stocks in water.
Streptavidin coated plates:
Nunc-immunomodule microtiter plate strips were coated by addition of 200 μL of streptavidin (30 ug/mL, Scripps, La Jolla, Calif.) in freshly prepared 10 mM sodium carbonate (pH 9.6). Plates were incubated overnight at 4° C. Streptavidin solution was aspirated from the wells and a blocking buffer composed of phosphate buffered saline (PBS), 20 mg/mL bovine serum albumin (crystalline, nuclease and protease free, Calbiochem) and 100 mg/mL lactose (Sigma) was added to the plates for 3 hrs at room temperature. Blocking buffer was removed from the wells, which were allowed to dry overnight at room temperature and subsequently stored at 4° C. in zip lock bags with desiccant. For the majority of the compound evaluation experiments, streptavidin coated plates were obtained from Du Pont Biotechnology Systems (Boston, Mass.).
MT-2, CEM, and H9 cells were maintained in RPMI 1640 supplemented with 5% fetal calf serum (FCS), 2 mM L-glutamine and 50 μg/mL gentamycin, all from Gibco. Laboratory strains of HIV-1 (RF, MN and IIIB) were propagated in H9 cells in the same medium. Virus stocks were prepared approximately 1 month after acute infection of H9 cells by clarification of the tissue culture medium and storage of aliquots at −70° C. […] Each aliquot of virus stock used for infection was thawed only once. In some cases, infected H9 cells were shifted to Dulbecco's modified Eagle's medium 3-10 days before collection of virus in order to generate virus stocks in medium with low biotin content. Clinical isolates of HIV that had been passaged once in MT-2 cells were used to infect fresh MT-2 cells in RPMI medium. Three days after infection, cells were pelleted, resuspended and culture continued in Dulbecco's modified Eagle's medium as above. Virus stocks of clinical isolates were prepaid 10-15 days after infection when cytopathic effects were apparent in the culture.

[2] = Human immunodeficiency virus 1, MT2, HIV RNA assay, HIV-1 infected MT-2 cells, class symbols, read-out: IC90
[3] = Human immunodeficiency virus 1, MT2, 24 h, Table 1d, upper part, read-out: IC90
[4] = Human immunodeficiency virus 1, MT2, Table 1e, read-out: IC90

Structure (SMILES): CSCCC1C(O)C(O)C(CCSC)N(Cc2ccc(CO)cc2)C(=O)N1Cc1ccc(CO)cc1 (stereo not drawn) [16AF]
- Ki [1]: > 1000 nM

Structure (SMILES): O=C1N(Cc2ccccc2)C(Cc2ccc3ccccc3c2)C(O)C(O)C(Cc2ccc3ccccc3c2)N1Cc1ccccc1 (stereo not drawn) [16K]
- Ki [1]: < 10 nM

Structure (SMILES): O=C1N(Cc2ccc3ccccc3n2)C(Cc2ccccc2)C(O)C(O)C(Cc2ccccc2)N1Cc1ccc2ccccc2n1 (stereo not drawn) [Example 6K]
- IC90 (HIV-1 (RF) in MT-2 cells; [2]): > 100 µg/mL

Structure (SMILES): O=C1N(Cc2ccc(C(F)(F)F)cc2)C(Cc2ccccc2)C(O)C(O)C(Cc2ccccc2)N1Cc1ccc(C(F)(F)F)cc1 (stereo not drawn) [Example 6W]
- IC90 (HIV-1 (RF) in MT-2 cells; [2]): > 100 µg/mL

Structure (SMILES): O=C1N(Cc2cccc(C(F)(F)F)c2)C(Cc2ccccc2)C(O)C(O)C(Cc2ccccc2)N1Cc1cccc(C(F)(F)F)c1 (stereo not drawn) [Example 6Y]
- IC90 (HIV-1 (RF) in MT-2 cells; [2]): > 100 µg/mL

- IC90 (HIV-1 (RF) in MT-2 cells; [3]): 10 to 100 µg/mL (≈ 21.5 to 215 µM)
Structure (SMILES): C=CCN1C(=O)N(CC=C)C(Cc2ccccc2)C2OCSCOC2C1Cc1ccccc1 (stereo not drawn) [Example 7B]

- IC90 (HIV-1 (RF) in MT-2 cells; [3]): 10 to 100 µg/mL (≈ 22.4 to 224 µM)
Structure (SMILES): O=C1N(CC2CC2)C(Cc2ccccc2)C2OCOC2C(Cc2ccccc2)N1CC1CC1 (stereo not drawn) [Example 7H]

- IC90 (HIV-1 (RF) in MT-2 cells; [3]): 10 to 100 µg/mL (≈ 16.2 to 162 µM)
Structure (SMILES): O=C1N(Cc2ccc3ccccc3c2)C(Cc2ccccc2)C2OCOC2C(Cc2ccccc2)N1Cc1ccc2ccccc2c1 (stereo not drawn) [Example 7Q]

- IC90 (HIV-1 (RF) in MT-2 cells; [4]): > 100 µg/mL
Structure (SMILES): O=C1N(Cc2ccc3ccccc3c2)C(C(F)Cc2ccccc2)[C@@H](O)[C@@H](Cc2ccccc2)N1Cc1ccc2ccccc2c1 (stereo partly drawn) [Example 7X]

- IC90 (HIV-1 (RF) in MT-2 cells; Table 1e): +++ (+++=<10 μg/mL)
Structure (SMILES): NC(=NO)c1cccc(CN2C(=O)N(Cc3cccc(C(N)=NO)c3)C(Cc3ccccc3)C(O)C2CCc2ccccc2)c1 (stereo not drawn) [Example 8AF]

- IC90 (HIV-1 (RF) in MT-2 cells; Table 1e): + (+=>100 μg/mL)
Structure (SMILES): NC(=NO)c1cccc(CN2C(=O)N(Cc3cccc(C(N)=NO)c3)C(Cc3ccccc3)C(O)C2CCc2ccccc2)c1 (stereo not drawn) [Example 8AO]

- IC90 (HIV-1 (RF) in MT-2 cells; [4]): > 100 µg/mL
Structure (SMILES): COC(=O)c1cccc(CN2C(=O)N(Cc3cccc(C(=O)OC)c3)C(Cc3ccccc3)C(O)C2CCc2ccccc2)c1 (stereo not drawn) [Example 8AQ]

- IC90 (HIV-1 (RF) in MT-2 cells; [4]): > 50 µg/mL
Structure (SMILES): O=C1N(Cc2ccc3ccccc3c2)C(CCc2ccccc2)[C@@H](O)[C@@H](Cc2ccccc2)N1Cc1ccc2ccccc2c1 (stereo partly drawn) [Example 8G]

- IC90 (HIV-1 (RF) in MT-2 cells; [4]): > 50 µg/mL
Structure (SMILES): O=C1N(Cc2ccc3ccccc3c2)C(Cc2ccccc2)C(O)C(C(Br)Cc2ccccc2)N1Cc1ccc2ccccc2c1 (stereo not drawn) [Example 8R]

- IC90 (HIV-1 (RF) in MT-2 cells; [4]): 10 to 100 µg/mL (≈ 16.5 to 165 µM)
Structure (SMILES): COC(=O)c1cccc(CN2C(=O)N(Cc3cccc(C(=O)OC)c3)[C@H](Cc3ccccc3)[C@H](O)[C@H]2CCc2ccccc2)c1 [Example 8Y]

- IC90 (HIV-1 (RF) in MT-2 cells; Human immunodeficiency virus 1, MT2, 48 h, Table 2d, class symbols, read-out: IC90): < 10 µg/mL
Structure (SMILES): CNC(=O)OCCCCCCN1C(=O)N(CCCCCCOC(C)=O)C(Cc2ccccc2)C(O)C(O)C1Cc1ccccc1 (stereo not drawn) [Example 12X]

- IC90 (HIV-1 (RF) in MT-2 cells; Human immunodeficiency virus 1, MT2, 48 h, Table 2d, HIV RNA assay, read-out: IC90): < 10 µg/mL
Structure (SMILES): CC(=NO)c1cccc(CN2C(=O)N(Cc3cccc(C(C)=NO)c3)C(Cc3ccccc3)C(O)C(O)C2Cc2ccccc2)c1 (stereo not drawn) [Example 15XS]

- IC90 (HIV-1 (RF) in MT-2 cells; Human immunodeficiency virus 1, MT2, virus inoculum standardisation, HIV-1 (RF), MT-2 cells, read-out: IC50 value (concentration of compound required to reduce the HIV RNA level by 90%)): 0.2 µg/mL (≈ 0.947 µM)
Structure (SMILES): Nc1ccn([C@H]2CC[C@@H](CO)O2)c(=O)n1 [dideoxycytidine, reference compound]
